{"source": "patent US6984493B1", "about": "“Method for examining the involvement of opioid peptides in prurtis” (Toray Industries, Inc., priority 2000, dated 2006)", "system": "severe itching", "protocol": "One capsule of a κ-opioid agonist 17-cyclopropylmethyl-3, 14β-dihydroxy-4,5α-epoxy-6β-(N-methyl-trans-3-(3-furyl)acrylamide) morphinan hydrochloride capsule (10 μg/body) was administered to each of the selected patients. […] To quantitatively determine the severity of itching, visual analogue scale (VAS) was employed, in which the severity of itching was determined on a straight line of 0 to 100 mm where no itching was rated as “0” and the supposable most severe itching was rated as “100”."}
{"smiles": "CN(C(=O)/C=C/c1ccoc1)[C@@H]1CC[C@@]2(O)[C@H]3Cc4ccc(O)c5c4[C@@]2(CCN3CC2CC2)[C@H]1O5.Cl", "note": "(relative stereo) [17-cyclopropylmethyl-3, 14β-dihydroxy-4,5α-epoxy-6β-(N-methyl-trans-3-(3-furyl)acrylamide) morphinan hydrochloride]", "values": [{"measurement": "visual analogue scale (VAS) of severity of itching, mean of the four subjects", "setting": "after 4 to 24 hours from the administration, one capsule 10 μg/body, four patients with severe itching, VAS 75 mm before administration, scale 0 to 100 mm", "value": 0, "unit": "mm"}, {"measurement": "relief of itching", "setting": "after two hours from the administration, all administered patients (four), one capsule 10 μg/body", "value": "itching was relieved"}, {"measurement": "antipruritic effect on administration (summary statement referring to Example 2)", "setting": "as shown in Example 2", "value": "apparent antipruritic effect"}, {"measurement": "duration of antipruritic effect (continued until)", "setting": "time from the administration, all administered patients (four), one capsule 10 μg/body", "value": 24, "unit": "h"}]}
